How the values were obtained:
[1] = target: Ba/F3 cells overexpressing EGFR Del19/T790M/C797S (Homo sapiens, UniProt P00533, T790M/C797S, cells depend on it, form not given); experiment: Cell proliferation inhibitory activity assay, Ba/F3 EGFR Del19/T790M/C797S; format: cell-based; settings: cell proliferation inhibition, 72 hours, luminescence; read-out: Ba/F3 cells overexpressing different EGFR mutations IC50 (nM) Del19/T790M/C797S
Protocol: (§1) Suspension cells Ba/F3 (EGFR. Dell9/T790M/C797S), Ba/F3 (EGFR L858R/T790M/C797S), Ba/F3 (EGFR Del19/C797S), and Ba/F3 (EGFR L858R/C797S) overexpressing different EGFR mutations were cultured in PRMI 1640 containing 10% FBS and 1% PS, and adherent cells A431 carrying EGFR WT were cultured in DMEM containing 10% FBS and 1% PS. The experimental steps for compound activity detection are as follows: • (1) Take adherent cells in the logarithmic growth phase, digest them with trypsin count them, and then inoculate them into a 96-well plate at a certain density. Incubate them overnight at 37° C. and 5% CO2 to allow them to adhere.
(§2) Y=minimum+([…])/(1+10^((Log IC50−X)*slope)); • X: logarithm of compound concentration; Y: cell survival inhibition rate.

[2] = target: Ba/F3 (EGFR L858R/T790M/C797S) (Homo sapiens, UniProt P00533, T790M/C797S/L858R, cells depend on it); experiment: Cell proliferation inhibitory activity assay, Ba/F3 EGFR L858R/T790M/C797S; format: cell-based; settings: cell proliferation inhibition, 72 hours, luminescence; read-out: Ba/F3 cells overexpressing different EGFR mutations IC50 (nM) L858R/T790M/C797S
Protocol: as §1, §2

[3] = target: Ba/F3 (EGFR Del19/C797S) (Homo sapiens, UniProt P00533, C797S, cells depend on it, form not given); experiment: Cell proliferation inhibitory activity assay, Ba/F3 EGFR Del19/C797S; format: cell-based; settings: cell proliferation inhibition, 72 hours, luminescence; read-out: Ba/F3 cells overexpressing different EGFR mutations IC50 (nM) Del19/C797S
Protocol: as §1, §2

[4] = target: Ba/F3 (EGFR L858R/C797S) (Homo sapiens, UniProt P00533, C797S/L858R, cells depend on it); experiment: Cell proliferation inhibitory activity assay, Ba/F3 EGFR L858R/C797S; format: cell-based; settings: cell proliferation inhibition, 72 hours, luminescence; read-out: Ba/F3 cells overexpressing different EGFR mutations IC50 (nM) L858R/C797S
Protocol: as §1, §2

[5] = test system: A431 cell carrying EGFR WT; experiment: Cell proliferation inhibitory activity assay, A431; format: cell-based; settings: Homo sapiens, A-431; cell proliferation inhibition, 72 hours, luminescence
Protocol: as §1, §2

[6] = Metabolic stability of liver microsomes, human; format: in vitro ADME; settings: NADPH, 0-45 min, read-out: CLint(μL/min/mg protein) Human
Protocol: (§3) The liver microsomes of human, rat, mouse and dog were used to study the metabolic stability of the compounds. The specific experimental steps are as follows: • (1) Add 40 μL MgCl2 and 306 μL PBS to each well of a 96-well plate, and then add 4 μL compound, with a final DMSO concentration of ≤0.5%. Set up a blank well without compound; • (2) Add 10 μL of 20 mg/mL liver microsomes to each well, incubate at 37° C. for 10 min; • (3) Add 40 μL NADPH working solution to each well to start the reaction, and set up a control well without NADPH; • (4) At 0, 5, 15, and 45 min after the start of the reaction, 50 μL of sample was taken out, the termination solution was added, and the mixture was shaken for 5 min. • (5) The samples were then centrifuged at 3,220 g for 10 min, and 50 μL of the supernatant was removed and was added 200 μL water for dilution and analysis by LC-MS/MS.
(§4) The in vitro intrinsic clearance (in vitro CLint, in μL/min/mg) was calculated from the in vitro half-life t1/2 (minutes) using the following equation (mean of replicates):
(§5) In vitro clearance rate=0.693/in vitro half-life t1/2×[incubation volume (μL)/(protein amount (mg)]

[7] = Metabolic stability of liver microsomes, rat; format: in vitro ADME; settings: NADPH, 0-45 min, read-out: CLint(μL/min/mg protein) Rat
Protocol: as §3, §4, §5

[8] = Metabolic stability of liver microsomes, mouse; format: in vitro ADME; settings: NADPH, 0-45 min, read-out: CLint(μL/min/mg protein) Mouse
Protocol: as §3, §4, §5

[9] = Metabolic stability of liver microsomes, dog; format: in vitro ADME; settings: NADPH, 0-45 min, read-out: CLint(μL/min/mg protein) Dog
Protocol: as §3, §4, §5

[10] = Pharmacokinetics in mice; format: in vivo, mouse; settings: mouse, po, female BALB/c mice, 5 mg/kg orally by gavage, plasma; for Cmax: read-out: Cmax
Protocol: Mouse PK studies were performed using female BALB/c mice (20-30 g). Compounds were prepared and prepared immediately before use. Mice were administered intravenously or orally by gavage. Blood was collected from the mouse orbital venous plexus, and 100 μL of whole blood was transferred to a K2-EDTA tube at each time point.
1 mg/kg was given intravenously, and whole blood was collected at 0.083, 0.25, 0.5, 1, 2, 4, 6 and 24 h after administration; 5 mg/kg were given orally by gavage, and whole blood was collected at 0.25, 0.5, 1, 2, 4, 6, 24 h after administration in different batches, or the mice were killed at 2, 4 and 6 h to obtain brains. Whole blood samples were centrifuged and plasma was separated; brain tissue samples were homogenized by adding 4 times the volume of buffer, and the plasma and brain tissue samples were stored in a −80° C. refrigerator for later use. After the above plasma and brain tissue samples were precipitated with acetonitrile for protein, the supernatant was taken and mixed with water in a 1:1 ratio, and 10 μL was taken for LC-MS/MS detection.

[11] = Pharmacokinetics in rats; format: in vivo, rat; settings: rat, po, male SD rats, 5 mg/kg orally by gavage, plasma; for Cmax: read-out: Cmax
Protocol: Male SD rats (200-300 g) were used for rat PK studies. Compounds were prepared and prepared immediately before use. Rats were administered intravenously or orally by gavage. Blood was collected from the rats through the orbital venous plexus, and 100 μL whole blood was collected into K2-EDTA tubes at each time point.
1 mg/kg was given intravenously, and whole blood was collected at 0.083, 0,25, $0.5, 1, 2, 4, 7, 24, 48, and 72 h after administration; 5 mg/kg were given orally by gavage, and whole blood was collected at 0.25, 0.5, 1, 2, 4, 7, 24, 48, and 72 h after administration in different batches, or the rats were killed at 4 and 24 h to obtain brains. The brain tissue samples were homogenized by adding 4 times the volume of buffer, and the whole blood and brain tissue samples were stored in a −80° C. refrigerator for later use. After the above whole blood and brain tissue samples were precipitated with acetonitrile for protein, the supernatant was taken and mixed with water in a ratio of 1:2, and 10 μL was taken for LC-MS/MS detection.

Ba/F3 cells overexpressing EGFR Del19/T790M/C797S, sequence (P00533 with tags, fused parts or gaps DEL746-750/T790M/C797S, form open): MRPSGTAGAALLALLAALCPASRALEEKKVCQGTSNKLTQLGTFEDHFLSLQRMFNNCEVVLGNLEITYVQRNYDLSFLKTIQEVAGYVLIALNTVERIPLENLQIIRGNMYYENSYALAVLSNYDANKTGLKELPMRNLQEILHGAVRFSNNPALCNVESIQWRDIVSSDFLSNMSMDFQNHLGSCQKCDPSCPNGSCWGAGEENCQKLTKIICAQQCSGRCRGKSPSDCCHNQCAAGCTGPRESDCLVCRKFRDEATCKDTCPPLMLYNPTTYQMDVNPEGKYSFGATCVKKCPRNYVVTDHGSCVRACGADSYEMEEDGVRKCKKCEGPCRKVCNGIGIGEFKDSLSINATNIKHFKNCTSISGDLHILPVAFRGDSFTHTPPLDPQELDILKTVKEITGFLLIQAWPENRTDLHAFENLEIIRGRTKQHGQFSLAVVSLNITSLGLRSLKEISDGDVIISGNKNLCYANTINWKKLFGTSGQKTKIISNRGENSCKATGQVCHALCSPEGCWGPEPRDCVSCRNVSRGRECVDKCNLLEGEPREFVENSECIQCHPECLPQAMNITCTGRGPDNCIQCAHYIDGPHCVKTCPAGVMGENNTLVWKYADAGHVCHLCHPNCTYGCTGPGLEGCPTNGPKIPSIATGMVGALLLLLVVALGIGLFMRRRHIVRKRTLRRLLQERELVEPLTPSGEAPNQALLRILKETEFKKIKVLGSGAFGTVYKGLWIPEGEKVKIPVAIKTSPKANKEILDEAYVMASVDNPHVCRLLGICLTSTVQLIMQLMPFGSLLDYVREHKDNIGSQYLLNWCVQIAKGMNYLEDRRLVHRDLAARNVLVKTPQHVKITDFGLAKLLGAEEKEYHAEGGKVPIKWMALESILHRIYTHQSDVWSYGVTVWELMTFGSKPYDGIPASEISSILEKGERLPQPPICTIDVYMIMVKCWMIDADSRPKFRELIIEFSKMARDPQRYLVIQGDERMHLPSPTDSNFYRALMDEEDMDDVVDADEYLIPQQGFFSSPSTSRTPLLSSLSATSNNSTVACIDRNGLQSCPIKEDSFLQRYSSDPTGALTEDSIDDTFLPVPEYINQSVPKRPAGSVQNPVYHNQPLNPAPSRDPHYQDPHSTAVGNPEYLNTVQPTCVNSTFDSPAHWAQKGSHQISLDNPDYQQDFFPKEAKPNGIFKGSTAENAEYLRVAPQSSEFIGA
Ba/F3 (EGFR L858R/T790M/C797S), sequence (P00533 whole entry T790M/C797S/L858R): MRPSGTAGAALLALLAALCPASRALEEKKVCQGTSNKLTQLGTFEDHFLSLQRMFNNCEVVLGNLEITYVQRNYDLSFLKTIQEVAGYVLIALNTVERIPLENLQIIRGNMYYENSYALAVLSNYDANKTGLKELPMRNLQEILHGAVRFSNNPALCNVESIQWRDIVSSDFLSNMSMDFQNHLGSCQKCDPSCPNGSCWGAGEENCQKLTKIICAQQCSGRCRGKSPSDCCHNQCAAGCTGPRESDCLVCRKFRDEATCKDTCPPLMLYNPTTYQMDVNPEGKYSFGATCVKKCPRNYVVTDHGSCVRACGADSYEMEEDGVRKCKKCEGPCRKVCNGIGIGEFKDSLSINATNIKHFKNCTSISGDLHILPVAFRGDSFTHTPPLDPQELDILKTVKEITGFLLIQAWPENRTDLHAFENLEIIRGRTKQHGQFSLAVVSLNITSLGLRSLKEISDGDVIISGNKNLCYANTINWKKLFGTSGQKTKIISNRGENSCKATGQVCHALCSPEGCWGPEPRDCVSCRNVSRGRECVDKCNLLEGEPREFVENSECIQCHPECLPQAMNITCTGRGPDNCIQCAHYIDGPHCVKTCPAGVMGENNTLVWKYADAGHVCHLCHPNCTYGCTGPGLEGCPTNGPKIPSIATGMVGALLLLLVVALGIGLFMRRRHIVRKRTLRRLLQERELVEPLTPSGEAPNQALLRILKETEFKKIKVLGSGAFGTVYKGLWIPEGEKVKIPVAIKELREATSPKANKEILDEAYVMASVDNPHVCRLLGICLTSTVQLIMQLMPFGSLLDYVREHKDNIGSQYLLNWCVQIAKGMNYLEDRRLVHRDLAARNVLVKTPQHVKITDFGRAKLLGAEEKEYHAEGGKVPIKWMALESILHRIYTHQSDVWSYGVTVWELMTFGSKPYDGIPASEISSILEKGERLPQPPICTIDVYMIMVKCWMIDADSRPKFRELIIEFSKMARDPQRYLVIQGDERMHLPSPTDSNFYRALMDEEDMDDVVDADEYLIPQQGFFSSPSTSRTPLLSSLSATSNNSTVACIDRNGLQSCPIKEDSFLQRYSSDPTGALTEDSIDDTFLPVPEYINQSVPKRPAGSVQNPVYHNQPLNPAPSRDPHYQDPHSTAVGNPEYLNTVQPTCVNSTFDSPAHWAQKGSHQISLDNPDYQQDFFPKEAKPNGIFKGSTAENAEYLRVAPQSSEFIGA
Ba/F3 (EGFR Del19/C797S), sequence (P00533 with tags, fused parts or gaps DEL746-750/C797S, form open): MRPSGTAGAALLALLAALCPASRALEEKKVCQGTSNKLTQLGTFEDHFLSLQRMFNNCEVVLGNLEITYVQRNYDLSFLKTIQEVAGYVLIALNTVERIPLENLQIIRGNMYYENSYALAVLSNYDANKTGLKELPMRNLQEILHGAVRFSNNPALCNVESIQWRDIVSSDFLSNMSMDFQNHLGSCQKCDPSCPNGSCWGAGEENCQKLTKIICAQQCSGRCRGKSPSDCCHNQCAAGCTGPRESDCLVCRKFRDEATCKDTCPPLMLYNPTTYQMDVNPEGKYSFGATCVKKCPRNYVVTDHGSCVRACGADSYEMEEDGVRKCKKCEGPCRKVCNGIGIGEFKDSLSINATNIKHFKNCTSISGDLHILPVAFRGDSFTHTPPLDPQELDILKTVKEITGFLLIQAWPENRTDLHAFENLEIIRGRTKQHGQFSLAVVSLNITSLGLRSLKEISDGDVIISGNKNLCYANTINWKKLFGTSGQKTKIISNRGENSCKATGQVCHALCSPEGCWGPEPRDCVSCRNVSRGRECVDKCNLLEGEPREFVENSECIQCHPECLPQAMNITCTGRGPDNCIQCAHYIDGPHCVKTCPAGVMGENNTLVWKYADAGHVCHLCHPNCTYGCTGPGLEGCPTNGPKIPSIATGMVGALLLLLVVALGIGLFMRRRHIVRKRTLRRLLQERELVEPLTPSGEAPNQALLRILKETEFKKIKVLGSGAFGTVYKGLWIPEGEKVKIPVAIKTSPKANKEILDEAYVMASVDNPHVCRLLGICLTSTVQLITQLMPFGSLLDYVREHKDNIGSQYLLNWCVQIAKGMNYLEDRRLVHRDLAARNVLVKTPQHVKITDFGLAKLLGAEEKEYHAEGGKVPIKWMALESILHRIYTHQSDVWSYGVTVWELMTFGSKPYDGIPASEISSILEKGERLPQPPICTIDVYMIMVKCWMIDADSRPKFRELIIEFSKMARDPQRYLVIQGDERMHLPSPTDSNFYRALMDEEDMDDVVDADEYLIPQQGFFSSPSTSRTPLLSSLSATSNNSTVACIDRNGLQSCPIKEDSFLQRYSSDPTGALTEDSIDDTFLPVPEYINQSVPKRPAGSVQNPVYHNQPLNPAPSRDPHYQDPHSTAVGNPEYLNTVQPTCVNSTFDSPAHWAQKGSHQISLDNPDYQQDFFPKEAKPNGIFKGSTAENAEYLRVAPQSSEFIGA
Ba/F3 (EGFR L858R/C797S), sequence (P00533 whole entry C797S/L858R): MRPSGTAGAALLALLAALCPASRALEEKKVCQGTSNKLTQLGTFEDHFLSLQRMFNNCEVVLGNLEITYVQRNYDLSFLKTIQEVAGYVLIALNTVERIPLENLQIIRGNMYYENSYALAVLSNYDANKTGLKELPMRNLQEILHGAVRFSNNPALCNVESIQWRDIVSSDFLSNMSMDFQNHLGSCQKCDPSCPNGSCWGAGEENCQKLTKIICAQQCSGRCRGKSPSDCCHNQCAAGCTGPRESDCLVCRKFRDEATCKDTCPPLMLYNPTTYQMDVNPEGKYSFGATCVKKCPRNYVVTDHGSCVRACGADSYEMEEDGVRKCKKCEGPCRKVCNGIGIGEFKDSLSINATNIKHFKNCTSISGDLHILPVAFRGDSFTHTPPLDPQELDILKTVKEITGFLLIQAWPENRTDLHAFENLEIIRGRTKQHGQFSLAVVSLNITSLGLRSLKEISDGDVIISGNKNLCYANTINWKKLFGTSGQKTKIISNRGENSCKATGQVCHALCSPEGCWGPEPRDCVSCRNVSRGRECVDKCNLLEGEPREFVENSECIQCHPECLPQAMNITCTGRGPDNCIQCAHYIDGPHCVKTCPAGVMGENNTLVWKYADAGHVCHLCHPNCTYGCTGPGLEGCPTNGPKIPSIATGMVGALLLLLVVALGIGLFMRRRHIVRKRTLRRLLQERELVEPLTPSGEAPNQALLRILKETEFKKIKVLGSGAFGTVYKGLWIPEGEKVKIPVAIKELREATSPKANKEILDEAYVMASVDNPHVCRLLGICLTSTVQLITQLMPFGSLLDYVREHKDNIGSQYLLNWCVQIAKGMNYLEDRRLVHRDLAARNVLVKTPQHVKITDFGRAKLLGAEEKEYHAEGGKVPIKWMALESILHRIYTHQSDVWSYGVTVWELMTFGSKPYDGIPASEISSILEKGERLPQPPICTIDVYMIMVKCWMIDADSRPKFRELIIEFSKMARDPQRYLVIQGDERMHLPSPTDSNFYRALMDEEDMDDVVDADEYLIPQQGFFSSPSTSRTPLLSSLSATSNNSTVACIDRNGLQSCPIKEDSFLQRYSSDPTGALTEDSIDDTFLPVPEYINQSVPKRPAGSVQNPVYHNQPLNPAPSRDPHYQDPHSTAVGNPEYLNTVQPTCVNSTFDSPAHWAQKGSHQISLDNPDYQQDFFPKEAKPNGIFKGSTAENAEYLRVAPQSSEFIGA

Row | SMILES | GI50 [1] [nM] | GI50 [2] [nM] | GI50 [3] [nM] | GI50 [4] [nM] | IC50 [5] [nM] | microsomal CLint [6] [µL/min/mg] | microsomal CLint [7] [µL/min/mg] | microsomal CLint [8] [µL/min/mg] | microsomal CLint [9] [µL/min/mg] | AUC(0-t) [10] [ng·h/mL] | half-life [10] [h] | Cmax [10] [ng/mL] | AUC(0-t) [11] [ng·h/mL] | half-life [11] [h] | Cmax [11] [ng/mL]
1 | Cc1cc2cc(n1)-c1cnccc1OCCCCCn1c(nc3ccc(N4CCC5(CCN(C)CC5)CC4)cc31)NC2=O [Example 1, 2^6-methyl-5^6-(9-methyl-3,9-diazaspiro[5.5]undecan-3-yl)-5^1H-11-oxa-4-aza-5(2,1)-benzo[d]imidazola-1(3,4),2(2,4)-dipyridinacycloundecaphan-3-one] | 0.24 | 0.62 | 0.08 | 0.23 | 1640 | 7.2 | 14.2 | 32.7 | 8.9 |  |  |  |  |  | 
2 | Cc1cc2cc(n1)-c1cnccc1OCCC[C@@H](C)Cn1c(nc3ccc(N4CCC5(CCN(C)CC5)CC4)cc31)NC2=O [Example 3, (R)-2^6,7-dimethyl-5^6-(9-methyl-3,9-diazaspiro[5.5]undecan-3-yl)-5^1H-11-oxa-4-aza-5(2,1)-benzo[d]imidazola-1(3,4)2(2,4)-dipyridinacycloundecaphan-3-one] | 0.49 | 0.71 | 0.07 | 0.44 | 759 | 6.6 | 8 | 23.1 | 7.9 |  |  |  |  |  | 
3 | Cc1cc2cc(n1)-c1cnccc1OCCC[C@@H](C)Cn1c(nc3ccc(N4CCC5(CC4)CCN(C4COC4)CC5)cc31)NC2=O [Example 4] | 0.2 | 1.1 | 0.2 | 0.8 | 274 | 26.3 | 5.6 |  | 24 | 2090 | 5.28 | 181 | 2590 | 27.5 | 165
4 | Cc1cc2cc(n1)-c1cnccc1OCCC[C@@H](C)Cn1c(nc3cc(F)c(N4CCC5(CCN(C)CC5)CC4)cc31)NC2=O [Example 5, (R)-5^5-fluoro-2^6,7-dimethyl-5^6-(9-methyl-3,9-diazaspiro[5.5]undecan-3-yl)-5^1H-11-oxa-4-aza-5(2,1)-benzo[d]imidazola-1(3,4),2(2,4)-dipyridinacycloundecaphan-3-one] | 0.61 | 0.98 | 0.19 | 0.88 | 331 | 9.1 | 8.9 | 22.8 | 2.2 |  |  |  |  |  | 
5 | Cc1cc2cc(n1)-c1cnccc1OCCC[C@@H](C)Cn1c(nc3cc(F)c(N4CCC5(CC4)CCN(C4COC4)CC5)cc31)NC2=O [Example 6, (R)-5^5-fluoro-2^6,7-dimethyl-5^6-(9-(oxetan-3-yl)-3,9-diazaspiro[5.5]undecan-3-yl)-5^1H-11-oxa-4-aza-3(2.1)-benzo[d]imidazola-1(3,4),2(2,4)-dipyridinacycloundecaphan-3-one] | 2.1 | 4.1 | 0.38 | 2.1 | 403 | 41.5 | 2.9 |  | 20.6 | 1140 | 21.5 | 92.4 | 1700 | 17.2 | 106
6 | Cc1cc2cc(n1)-c1cnccc1OCCC[C@@H](C)Cn1c(nc3cc(C)c(N4CCC5(CC4)CCN(C4COC4)CC5)cc31)NC2=O [Example 12, (R)-2^6,5^5,7-trimethyl-5^6-(9-(oxetan-3-yl)-3,9-diazaspiro[5.5]undecan-3-yl)-5^1H-11-oxa-4-aza-5(2,1)-benzo[d]imidazola-1(3,4),2(2,4) -dipyridinacycloundecaphan-3-on] | 4.9 | 7.6 | 0.48 | 4.4 | 1000 | 24.9 |  | 5.5 | 10.4 |  |  |  |  |  | 
7 | Cc1cc2cc(n1)-c1cnccc1OCCCCCn1c(nc3cc(C)c(N4CCC5(CCN(C)CC5)CC4)cc31)NC2=O [Example 13, 2^6,5^5-dimethyl-5^6-(9-methyl-3,9-diazaspiro[5.5]undecan-3-yl)-5^1H-11-oxa-4-aza-5(2,1)-benzo[d]imidazola-1(3,4),2(2,4)-dipyridinacycloundecaphan-3-one] | 0.96 | 2 | 0.2 | 1.3 | > 3330 | 4 | 7 | 6.2 | 4.2 |  |  |  |  |  | 
8 | Cc1cc2cc(n1)-c1cnccc1OCCCCCn1c(nc3ccc(N4CCC5(CCN(CC(C)(C)F)CC5)CC4)cc31)NC2=O [Example 78, 5^6-(9-(2-fluoro-2-methylpropyl)-3,9-diazaspiro [5.5]undecan-3-yl)-2^6-methyl-5^1H-11-oxa-4-aza-5(2,1)-benzo[d] imidazola-1(3,4),2(2,4)-dipyridinacyclo-undecaphan-3-one] | 5.9 | 12 | 3.3 | 21 | > 3330 | 4.3 | 12.2 | 69.5 | 22 |  |  |  |  |  | 
